In patent US20240400591A1 (Jacobio Pharmaceuticals Co., Ltd., priority 2021, published 2024) one finds IC50 and EC50 data, which are given here for 15 molecules.

For one experiment, the system named is NUGC4 (P53 WT). The experiment in a line: Cell viability assay (CellTiter-Glo, 6 days), NUGC4. It counts as cell-based. The settings on record: cell viability, 6 days, CellTiter-Glo, read-out: NUGC4 (P53 WT) IC50. As for the experimental part:
(§1) Cells were collected and counted. A desired number of cells was seeded into 96-well microplate and cultured in 37° C. cell incubator overnight. Compounds dissolved in cell culture medium were added into cell plate and cultured for 6 days. After balancing CellTiter-Glo reagent and cells at room temperature for 30 min, equal volume of CellTiter-Glo reagents was added to assay plate and shaken for 2 min for cell lysis. The cells were balanced at room temperature for 10 minutes and Luminescence signal was read using Envision. The percent of cell viability for compounds treated wells were normalized between High control and low control. Wells containing cell culture medium and same percentage DMSO sewved as Low control. Wells containing cells and same percentage DMSO sewved as High control. Cell viability (%)=(Luminescence readoutCompound treated−Luminescence readoutLow control)/(Luminescence readoutHigh control−Luminescence readoutLow control)*100%. Then the data were analyzed either by fitting a 4-parameter logistic model or by Excel to calculate IC50 values. And the IC50 was the concentration at 50% Cell viability on the curve.
For orientation: ATP-based viability assays read luminescence as a measure of living cells.

For experiment [1], the target named is T1, His-p53 Y220C (94-294) protein (Homo sapiens, UniProt P04637, Y220C).
T1 construct: His-p53 Y220C (94-294) protein
In words: In vitro DNA binding assay (HTRF). The settings on record: % activation normalized to 2 μM Ref-1a high control. It counts as biochemical. Background: Time-resolved FRET reads energy transfer from a long-lived donor to a nearby acceptor.

Another experiment relates to NUGC3 (P53 Y220C). The experiment in a line: Cell viability assay (CellTiter-Glo, 6 days), NUGC3. It counts as cell-based. The settings on record: cell viability, 6 days, CellTiter-Glo, read-out: NUGC3 (P53 Y220C) IC50. As for the experimental part: as §1
In experiment [2] the test system is NUGC-3_P53_Luc single clonal cell line (p53 Y220C). In words: Reporter gene assay (p53 RE luciferase). It counts as cell-based. The settings on record: luciferase reporter, 6 hours, normalized to Ref-1a (10 μM) high control, read-out: p53(Y220C)_NUGC-3 EC50. As for the experimental part:
NUGC-3_P53_Luc single clonal cell line was established using pGL4.38[luc2P/p53 RE/Hygro] Vector (E365A, promega). NUGC-3_P53-Luc single clonal cells were cultured in 37° C. cell incubator before use. NUGC-3-P53-Luc cells were collected and washed twice with PBS to remove phenol red and then resuspended in medium to a proper concentration. Tested compound dilutions were transferred into 384 well assay plates (PerkinElmer). A desired number of cells was seeded into the assay plate and cultured for 6 hours at 37° C. cell incubator. Britelite plus Luciferase Assay Reagent were added into each well and the luminescence value was recorded on Envision. The percent of activity value of compounds treated wells was normalized between high control and low control. Wells containing cells and Ref-1a (10 μM) sewved as high control, and wells containing cells and same percentage of DMSO sewved as low control. Activity value (%)=(Luminescence readoutCompound treated−Luminescence readoutLow control)/(Luminescence readoutHigh control−Luminescence readoutLow control)*100%. Then the data were analyzed either by fitting a 4-parameter logistic model or by Excel to calculate EC50 values and the EC50 was the concentration at 50% Activity on the curve.
(In general: A reporter such as luciferase makes a cellular process visible.)

Molecules are shown by their SMILES. Where two headings read alike, the source gives them in different places.

A word on the IC50: it is the concentration that gives 50% inhibition. In general, EC50 refers to the concentration at which the effect is half-maximal. For the molecule `COCC(O)CN1CC[C@@H](Nc2cccc3c(CC(F)(F)F)c(C#CCNc4ccc(P(C)(C)=O)cc4OC)sc23)[C@@H](F)C1` (relative stereo) [Example 97, 1-[(Z)-4-[[2-[3-(4-dimethylphosphoryl-2-methoxy-anilino)prop-1-ynyl]-3-(2,2,2-trifluoroethyl)benzothiophen-7-yl]amino]-3-fluoro-1-piperidyl]-3-methoxy-propan-2-ol], the IC50 in the experiment on NUGC4 (P53 WT) (Homo sapiens, NUGC-4, 144 h) amounted to 5720 nM; in the experiment with NUGC3 (P53 Y220C) (Homo sapiens, NUGC-3, 144 h) it was 960 nM. The EC50 was found to be 71 nM in experiment [1] and 150 nM in experiment [2] (Homo sapiens, NUGC-3).

`COc1cc(P(C)(C)=O)ccc1NCC#Cc1sc2c(N[C@@H]3CCN(C4CCCC4)C[C@@H]3F)cccc2c1CC(F)(F)F` (relative stereo) [Example 104, (4-((3-(7-(((Z)-1-cyclopentyl-3-fluoropiperidin-4-yl)amino)-3-(2,2,2-trifluoroethyl)benzo[b]thiophen-2-yl)prop-2-yn-1-yl)amino)-3-methoxyphenyl)dimethylphosphine oxide]: the IC50 in the experiment on NUGC4 (P53 WT) (Homo sapiens, NUGC-4, 144 h) came out at 1750 nM; in the experiment with NUGC3 (P53 Y220C) (Homo sapiens, NUGC-3, 144 h) it was 1380 nM. For the same molecule, the EC50 in experiment [1] stood at 82 nM; in experiment [2] (Homo sapiens, NUGC-3), 240 nM.

Consider `COc1cc(P(C)(C)=O)ccc1NCC#Cc1sc2c(NC3[C@@H]4COC[C@H]3CN(C)C4)cccc2c1CC(F)(F)F` (single isomer, unassigned) [Example 196], for which the IC50 was found to be 18600 nM in the experiment on NUGC4 (P53 WT) (Homo sapiens, NUGC-4, 144 h) and 6710 nM in the experiment on NUGC3 (P53 Y220C) (Homo sapiens, NUGC-3, 144 h). Moreover, the EC50 worked out at 67 nM in experiment [1] and 660 nM in experiment [2] (Homo sapiens, NUGC-3, 6 h).

As to `COc1cc(P(C)(C)=O)ccc1NCC#Cc1sc2c(NC3[C@@H]4COC[C@H]3CN(C)C4)cccc2c1CC(F)(F)F` (single isomer, unassigned) [Example 197], the IC50 was 11500 nM with NUGC4 (P53 WT) (Homo sapiens, NUGC-4, 144 h) and 390 nM with NUGC3 (P53 Y220C) (Homo sapiens, NUGC-3, 144 h). For the same molecule, the EC50 in experiment [1] came to 26 nM; in experiment [2] (Homo sapiens, NUGC-3), 120 nM.

For `CN1CCC(Nc2cccc3c(CC(F)(F)F)c(C#CCNc4ccc(P(C)(C)=O)cc4OCF)sc23)C(F)C1` (stereo not drawn) [Example 10, (4-((3-(7-(((Z)-3-fluoro-1-methylpiperidin-4-yl)amino)-3-(2,2,2-trifluoroethyl)benzo[b]thiophen-2-yl)prop-2-yn-1-yl)amino)-3-(fluoromethoxy)phenyl)dimethylphosphine oxide], the IC50 in the experiment with NUGC4 (P53 WT) was 21000 nM; in the experiment with NUGC3 (P53 Y220C), 1680 nM. The EC50 was found to be 56 nM in experiment [1] and 230 nM in experiment [2].

As for `COc1cc(P(C)(C)=O)ccc1NCC#Cc1sc2c(NC3CCN(C)CC3F)cccc2c1CC(F)(F)F` (stereo not drawn) [Example 15, (4-((3-(7-(((Z)-3-fluoro-1-methylpiperidin-4-yl)amino)-3-(2,2,2-trifluoroethyl)benzo[b]thiophen-2-yl)prop-2-yn-1-yl)amino)-3-methoxyphenyl)dimethylphosphine oxide], the results for the IC50 with NUGC4 (P53 WT) and with NUGC3 (P53 Y220C) were 6990 nM and 360 nM, respectively. For the same molecule, the figures for the EC50 in experiment [1] and in experiment [2] were 34 nM and 310 nM, respectively.

Consider `COc1cc(C(N)=O)ccc1NCC#Cc1sc2c(NC3CCN(C)CC3F)cccc2c1CC(F)(F)F` (stereo not drawn) [Example 46, 4-((3-(7-(((Z)-3-fluoro-1-methylpiperidin-4-yl)amino)-3-(2,2,2-trifluoroethyl)benzo[b]thiophen-2-yl)prop-2-yn-1-yl)amino)-3-methoxybenzamide], for which the IC50 in the experiment with NUGC4 (P53 WT) was determined as 10500 nM; in the experiment with NUGC3 (P53 Y220C) it was 1350 nM. Also, the figures for the EC50 in experiment [1] and in experiment [2] were 47 nM and 170 nM, respectively.

Turning to `COc1cc(P(C)(C)=O)c(F)cc1NCC#Cc1sc2c(NC3CCN(C)CC3F)cccc2c1CC(F)(F)F` (stereo not drawn) [Example 52, (2-fluoro-4-((3-(7-(((Z)-3-fluoro-1-methylpiperidin-4-yl)amino)-3-(2,2,2-trifluoroethyl)benzo[b]thiophen-2-yl)prop-2-yn-1-yl)amino)-5-methoxyphenyl)dimethylphosphine oxide], the IC50 with NUGC4 (P53 WT) worked out at 4580 nM; with NUGC3 (P53 Y220C), 750 nM. The EC50 amounted to 55 nM in experiment [1] and 230 nM in experiment [2].

Turning to `CNC(=O)c1ccc(NCC#Cc2cc3c(N[C@@H]4CCN(C)C[C@@H]4F)cccc3n2CC(F)(F)F)c(OC)c1` [Example 57, 4-((3-(4-(((Z)-3-fluoro-1-methylpiperidin-4-yl)amino)-1-(2,2,2-trifluoroethyl)-1H-indol-2-yl)prop-2-yn-1-yl)amino)-3-methoxy-N-methylbenzamide], the IC50 came out at 12000 nM in the experiment with NUGC4 (P53 WT) (Homo sapiens, NUGC-4, 144 h) and 1110 nM in the experiment on NUGC3 (P53 Y220C) (Homo sapiens, NUGC-3, 144 h). The concentration giving a half-maximal response (EC50) in experiment [1] was found to be 29 nM; in experiment [2] (Homo sapiens, NUGC-3), 80 nM.

For the molecule `COCC(O)CNC(=O)c1ccc(NCC#Cc2sc3c(NC4CCN(C)CC4F)cccc3c2CC(F)(F)F)c(OC)c1` (stereo not drawn) [Example 59, 4-((3-(7-(((Z)-3-fluoro-1-methylpiperidin-4-yl)amino)-3-(2,2,2-trifluoroethyl)benzo[b]thiophen-2-yl)prop-2-yn-1-yl)amino)-N-(2-hydroxy-3-methoxypropyl)-3-methoxybenzamide], the IC50 in the experiment with NUGC4 (P53 WT) came out at 9820 nM; in the experiment on NUGC3 (P53 Y220C), 1440 nM. The concentration giving a half-maximal response (EC50) in experiment [1] was 73 nM; in experiment [2], 150 nM.

For `CNC(=O)c1cc(OC)c(NCC#Cc2sc3c(NC4CCN(C)CC4F)cccc3c2CC(F)(F)F)cn1` (stereo not drawn) [Example 60, 5-((3-(3-(2,2,2-trifluoroethyl)-7-(((Z)-3-fluoro-1-methylpiperidin-4-yl)amino)benzo[b]thiophen-2-yl)prop-2-yn-1-yl)amino)-4-methoxy-N-methylpicolinamide], the IC50 with NUGC4 (P53 WT) came to 6100 nM; with NUGC3 (P53 Y220C), 1950 nM. Further, the EC50 came out at 72 nM in experiment [1] and 470 nM in experiment [2].

Turning to `COc1cc(C(N)=O)ncc1NCC#Cc1sc2c(NC3CCN(C)CC3F)cccc2c1CC(F)(F)F` (stereo not drawn) [Example 61, 5-((3-(3-(2,2,2-trifluoroethyl)-7-(((Z)-3-fluoro-1-methylpiperidin-4-yl)amino)benzo[b]thiophen-2-yl)prop-2-yn-1-yl)amino)-4-methoxypicolinamide], the IC50 was 13000 nM with NUGC4 (P53 WT) and 4530 nM in the experiment on NUGC3 (P53 Y220C). Further, the EC50 in experiment [1] is 102 nM; in experiment [2] it was 530 nM.

Turning to `CNC(=O)c1ccc(NCC#Cc2sc3c(NC4CCN(C)CC4F)cccc3c2CC(F)(F)F)c(OC)n1` (stereo not drawn) [Example 62, 5-((3-(7-(((Z)-3-fluoro-1-methylpiperidin-4-yl)amino)-3-(2,2,2-trifluoroethyl)benzo[b]thiophen-2-yl)prop-2-yn-1-yl)amino)-6-methoxy-N-methylpicolinamide], the figures for the IC50 in the experiment on NUGC4 (P53 WT) and in the experiment on NUGC3 (P53 Y220C) were 3700 nM and 1430 nM, respectively. The EC50 came to 64 nM in experiment [1] and 340 nM in experiment [2].

Turning to `CN1CCC(Nc2cccc3c(CC(F)(F)F)c(C#CCNc4ccc(P(C)(C)=O)cc4OC(F)F)sc23)C(F)C1` (stereo not drawn) [Example 64, (3-(difluoromethoxy)-4-((3-(7-(((Z)-3-fluoro-1-methylpiperidin-4-yl)amino)-3-(2,2,2-trifluoroethyl)benzo[b]thiophen-2-yl)prop-2-yn-1-yl)amino)phenyl)dimethylphosphine oxide], the IC50 with NUGC4 (P53 WT) worked out at 13600 nM; in the experiment with NUGC3 (P53 Y220C) it was 980 nM. Besides, the results for the EC50 in experiment [1] and in experiment [2] were 44 nM and 150 nM, respectively.

Consider `CN1CCC(Nc2cccc3c(CC(F)(F)F)c(C#CCNc4ccc(P(C)(C)=O)cc4OC(F)(F)F)sc23)C(F)C1` (stereo not drawn) [Example 65, (4-((3-(7-(((Z)-3-fluoro-1-methylpiperidin-4-yl)amino)-3-(2,2,2-trifluoroethyl)benzo[b]thiophen-2-yl)prop-2-yn-1-yl)amino)-3-(trifluoromethoxy)phenyl)dimethylphosphine oxide], for which the IC50 in the experiment on NUGC4 (P53 WT) was 10000 nM; in the experiment with NUGC3 (P53 Y220C), 1560 nM. In addition, the EC50 in experiment [1] was found to be 46 nM; in experiment [2] it was 120 nM.
